Measurements published in PubChem BioAssay AID588648 (The Scripps Research Institute Molecular Screening Center, 2011).
Calls of active or inactive are those of the source.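 How the source made its calls: active means Change of at least 30% in epidermal growth factor receptor protein level versus solvent-only controls, drop or rise; inactive means receptor level change under 30% either way.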

Tested on: HCT116 EGFR protein level, western blot, 24 h
Assay: EGFR protein lowering in cells – cell-based, HCT116 colorectal carcinoma, chemiluminescent western blot, counter-screen for KLF5 inhibitor project, late-stage follow-up (AID 588648)
Conditions: at 10 µM; for inhibition: stronger effect = higher value; for fold change: measured here: EGFR band fold change vs DMSO

| SMILES | inhibition | fold change |
| --- | --- | --- |
| CN(C(=O)CNC(=O)/C=C/c1cccc(Cl)c1)C1CCS(=O)(=O)CC1 | 12.7% (inactive) | -1.15 |
| CN(C(=O)CNC(=O)/C=C/c1cccc(Cl)c1)C1CCS(=O)(=O)C1 (stereo unspecified) | 10.3% (inactive) | -1.11 |
| CN(C(=O)COC(=O)/C=C/c1cccc([N+](=O)[O-])c1)C1CCS(=O)(=O)C1 (stereo unspecified) | 1.68% (inactive) | -1.02 |
